Test results: PMC8151276, “An Integrated Approach toward NanoBRET Tracers for Analysis of GPCR Ligand Engagement” (Molecules, 2021)

Key:
Format in all cases: binding
P2RY13 = target: T1, P2RY13 (Homo sapiens, UniProt Q9BPV8); test: NanoBRET screen HiBiT-P2RY13 in HEK293
T1 construct: purchased Promega (in-house HiBiT-GPCR construct library, NanoBRET)
T1 sequence (Q9BPV8 1-354): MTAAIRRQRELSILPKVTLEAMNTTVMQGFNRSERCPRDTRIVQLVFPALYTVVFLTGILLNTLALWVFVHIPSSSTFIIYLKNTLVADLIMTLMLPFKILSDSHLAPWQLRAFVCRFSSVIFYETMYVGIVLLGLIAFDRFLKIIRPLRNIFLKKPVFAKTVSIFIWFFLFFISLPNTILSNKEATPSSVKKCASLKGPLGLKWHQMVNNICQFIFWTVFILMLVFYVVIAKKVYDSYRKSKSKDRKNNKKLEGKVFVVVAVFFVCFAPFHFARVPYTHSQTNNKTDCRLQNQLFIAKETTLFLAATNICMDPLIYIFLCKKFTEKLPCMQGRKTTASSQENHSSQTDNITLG
Experimental: (§1) Each tracer candidate was screened across the entire library of HiBiT-GPCR constructs using NanoBRET as the detection modality. As depicted in Figure 4A, the specificity of interactions was evaluated through decrease in BRET due to competitive displacement of a bound tracer by excess parental compound. Each tracer was analyzed for binding to each HiBiT-GPCR fusion in the absence and in the presence of competing parental compound. Briefly, HEK293 cells were transfected with HiBiT-GPCR constructs diluted into promoterless DNA to reduce expression and maximize translocation to the cell surface. Each tracer candidate was then screened at concentrations of 1 μM and 0.1 μM across cells expressing these fusions. Cells were treated for 1.5 h with tracer either alone or in the presence of 20 μM competing parental compound (i.e., control). BRET was measured upon addition of purified LgBiT and subsequent complementation with HiBiT genetically fused to a GPCR. The specificity of interactions was assessed through a decrease in BRET signal due to competitive displacement of the bound tracer. To further gauge the robustness of these interactions, the fold response over the control (i.e., BRETtracer/BRETcontrol) was calculated. We chose a 1.5-fold response, which translates to ≥7-fold signal over noise as the minimal threshold required to score an interaction as positive. […]. Below we highlight the screening results obtained for our exemplary fluorescent tracers based on Clozapine, Amitriptyline and AZD1283.
(§2) HiBiT-GPCR DNA constructs were diluted in 10 mM Tris pH 8 to a final concentration of 0.01 μg/μL, arrayed in 96-well plates and stored at −20 °C. For transfection, HEK293 cells were suspended in Opti-MEM (without phenol red) supplemented with 2% fetal bovine serum (Seradigm) and 100 units/mL penicillin–streptomycin (Gibco) at a final concentration of 220,000 cells/mL and dispensed into white 96-well plates at 90 μL/well. Subsequent transfections and screens were carried using an Agilent Bravo Automated Liquid Handling Platform. First, the 96-well HiBiT DNA arrays were diluted 25-fold in Opti-MEM (without serum or phenol red) to a final concentration of 0.0004 μg/μL and 20 μL of the diluted DNAs were transferred into new 96-well plates. Next, promoterless carrier DNA (1 μg/μL) was diluted 25-fold (0.04 μg/μL) and then dispensed into the diluted arrays at 20 μL/well. Following brief mixing, Viafect transfection reagent (Promega) diluted 16-fold into Opti-MEM was dispensed into the plates at 40 μL/well. After mixing by pipetting, plates were incubated for 10 min on the pipetting station deck. The DNA-transfection reagent complexes were then added to plates containing cells. To facilitate the screen, 10 μL of DNA-transfection reagent complexes were added in duplicates to the top 4 and bottom 4 rows, resulting in two identical 48-well arrays per plate. Plates with transfected cells were incubated for 18–20 h at 37 °C/5% CO2. A screen of each tracer across the entire library using two different concentrations requires duplicate plates of transfected cells. Depending on the number of tracers being screened, transfections can be scaled up using the same ratios. The next day, for each tracer, four 20× screening solutions in tracer dilution buffer (Promega) were prepared: two duplicates at final concentration of 20 μM and two duplicates at a final concentration of 2 μM. A competing unmodified compound was added to one of each duplicate at a final concentration of 400 μM. The four resulting solutions were diluted 4-fold in Opti-MEM without serum or phenol red to generate 5× solutions (5 µM and 0.5 µM tracer +/− 100 μM competing compound). To screen the library, a BioTek MultiFlo FX liquid dispenser was used to dispense 22.5 µL of tracer solution to the top 4 rows and 22.5 µL tracer + competing compound solution to the 4 bottom rows. Plates were briefly mixed on an orbital shaker and incubated for 1.5 h at room temperature. […]

HTR1E = target: T2, HTR1E (Homo sapiens, UniProt P28566); test: NanoBRET screen HiBiT-HTR1E in HEK293
T2 construct: purchased Promega (in-house HiBiT-GPCR construct library, NanoBRET)
T2 sequence (P28566 whole entry): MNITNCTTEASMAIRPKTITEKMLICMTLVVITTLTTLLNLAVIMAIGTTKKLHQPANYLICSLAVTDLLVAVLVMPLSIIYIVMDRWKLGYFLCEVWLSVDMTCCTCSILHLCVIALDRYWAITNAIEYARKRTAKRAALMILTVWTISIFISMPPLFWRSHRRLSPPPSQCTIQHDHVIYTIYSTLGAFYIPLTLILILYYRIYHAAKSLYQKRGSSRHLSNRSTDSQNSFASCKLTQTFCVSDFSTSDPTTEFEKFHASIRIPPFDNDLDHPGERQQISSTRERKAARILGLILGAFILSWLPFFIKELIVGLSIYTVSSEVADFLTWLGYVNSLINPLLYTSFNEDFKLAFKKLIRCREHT
Experimental: as §1, §2

CCKBR = target: T3, CCKBR (Homo sapiens, UniProt P32239); test: NanoBRET screen HiBiT-CCKBR in HEK293
T3 construct: purchased Promega (in-house HiBiT-GPCR construct library, NanoBRET)
T3 sequence (P32239 1-447): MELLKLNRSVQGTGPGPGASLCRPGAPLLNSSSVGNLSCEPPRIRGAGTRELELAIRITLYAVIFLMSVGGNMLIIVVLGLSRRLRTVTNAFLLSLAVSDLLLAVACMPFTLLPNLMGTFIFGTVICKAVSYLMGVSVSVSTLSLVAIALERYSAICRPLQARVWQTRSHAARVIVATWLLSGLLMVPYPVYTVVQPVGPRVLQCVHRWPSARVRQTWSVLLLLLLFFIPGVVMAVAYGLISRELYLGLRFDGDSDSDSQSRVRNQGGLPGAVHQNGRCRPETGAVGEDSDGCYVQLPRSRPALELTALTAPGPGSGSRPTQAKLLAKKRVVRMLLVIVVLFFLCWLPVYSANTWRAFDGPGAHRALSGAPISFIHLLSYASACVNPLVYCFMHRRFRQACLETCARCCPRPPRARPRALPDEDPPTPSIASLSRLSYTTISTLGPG
Experimental: as §1, §2

Structure (SMILES) | NanoBRET Fold Response (P2RY13; P2RY13, tracer 0.1μM) | NanoBRET Fold Response (P2RY13; P2RY13, tracer 1μM) | NanoBRET Fold Response (HTR1E; HTR1E, tracer 0.1μM) | NanoBRET Fold Response (HTR1E; HTR1E, tracer 1μM) | NanoBRET Fold Response (CCKBR; CCKBR, tracer 0.1μM) | NanoBRET Fold Response (CCKBR; CCKBR, tracer 1μM) | other results
O=C(CCOCCOCCOCCOCCNC(=O)CCc1ccc2n1[B-](F)(F)[N+]1=C(c3ccc[nH]3)C=CC1=C2)NCCCN1CCN(C2=Nc3ccccc3Oc3ccc(Cl)cc32)CC1 [Loxapine-a-2-NB590] | 0.92 | 0.96 | 1.01 | 0.96 | 1.05 | 0.98 | –
CCCn1c(=O)c2[nH]c(-c3ccc(OCC(=O)NCCNC(=O)CCOCCNC(=O)c4ccc(CNC(=O)CCc5ccc6n5[B-](F)(F)[N+]5=C(c7ccc[nH]7)C=CC5=C6)cc4)cc3)nc2n(CCC)c1=O [XAC-3-NB590] | 1.00 | 1.03 | 1.08 | 0.78 | 1.02 | 0.85 | –
CN(C)CCC=C1c2ccccc2CCc2ccc(C(=O)NCCNC(=O)CCOCCOCCOCCOCCNC(=O)CCc3ccc4n3[B-](F)(F)[N+]3=C(c5ccc[nH]5)C=CC3=C4)cc21 [Amitriptyline-a-2-NB590] | – | – | – | – | – | – | NanoBRET Fold Response (P2RY13; tracer at 0.1μM): 1.09; NanoBRET Fold Response (P2RY13; tracer at 1μM): 0.85; NanoBRET Fold Response (HTR1E; tracer at 0.1μM): 1.04; NanoBRET Fold Response (HTR1E; tracer at 1μM): 1.00; NanoBRET Fold Response (CCKBR; tracer at 0.1μM): 1.02; NanoBRET Fold Response (CCKBR; tracer at 1μM): 0.98
COc1ccccc1N1CCN(CCCCN2C(=O)c3ccc(CNC(=O)CCOCCOCCOCCOCCNC(=O)CCc4ccc5n4[B-](F)(F)[N+]4=C(c6ccc[nH]6)C=CC4=C5)cc3C2=O)CC1 [NAN-190-2-NB590] | 0.97 | 1.04 | 0.97 | – | 1.00 | 0.97 | –
O=C(CCc1ccc2n1[B-](F)(F)[N+]1=C(c3ccc[nH]3)C=CC1=C2)NCc1ccc(C(=O)NCCOCCOCCNCC(O)COc2cccc3ccccc23)cc1 (stereo not shown) [Propranolol-3-NB590] | – | – | – | – | – | – | NanoBRET Fold Response (P2RY13; P2RY13, 0.1μM): 0.90; NanoBRET Fold Response (P2RY13; P2RY13, 1μM): 0.97; NanoBRET Fold Response (HTR1E; HTR1E, 0.1μM): 1.00; NanoBRET Fold Response (HTR1E; HTR1E, 1μM): 0.98; NanoBRET Fold Response (CCKBR; CCKBR, 0.1μM): 1.05; NanoBRET Fold Response (CCKBR; CCKBR, 1μM): 0.91
COc1ccccc1N1CCN(CCCCN2C(=O)c3ccc(CNC(=O)CCOCCNC(=O)c4ccc(CNC(=O)CCc5ccc6n5[B-](F)(F)[N+]5=C(c7ccc[nH]7)C=CC5=C6)cc4)cc3C2=O)CC1 [NAN-190-3-NB590] | 1.02 | 0.92 | 0.84 | 0.91 | 0.98 | 0.94 | –
O=C(CCc1ccc2n1[B-](F)(F)[N+]1=C(c3ccc[nH]3)C=CC1=C2)NCc1ccc(C(=O)NCCOCCC(=O)N[C@@H]2CC[C@@]3(O)[C@H]4Cc5ccc(O)c6c5[C@@]3(CCN4CC3CC3)[C@H]2O6)cc1 [Naltrexone-3-NB590] | 0.62 | 0.92 | 0.72 | 0.90 | 0.79 | 0.93 | –
CN(CCC=C1c2ccccc2CCc2ccccc21)C(=O)CCOCCOCCOCCOCCNC(=O)CCc1ccc2n1[B-](F)(F)[N+]1=C(c3ccc[nH]3)C=CC1=C2 [Amitriptyline-e-2-NB590] | – | – | – | – | – | – | NanoBRET Fold Response (HTR1E; tracer at 1μM): 0.96; NanoBRET Fold Response (CCKBR; tracer at 1μM): 1.02
